Source: patent publication US20060069132A1, “Azolecarboxamide herbicides” (priority 2004, published 2006)

Experiments:
[1] = system: Surinam grass; assay: Test B pre-/postemergence herbicide test; assay type: in vivo, Urochloa decumbens; conditions: for Surinam Grass plant response rating: postemergence
Method in brief: (§1)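 Response was scored visually 13 to 15 days after treatment against untreated greenhouse controls, 0 meaning no effect and 100 complete control. Formulations (solvent mixture plus surfactant) went onto soil after planting, onto foliage of 1- to 4-leaf plants, and onto 2-leaf plants in a flooded paddy set including rice and barnyardgrass.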

[2] = system: wild oat; assay: Test B postemergence herbicide test; assay type: in vivo, Avena fatua; conditions: postemergence
Method in brief: (§2)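 Treated at 2-leaf (paddy) or 1–4-leaf, 2–18 cm (postemergence); greenhouse 13–15 d; visual score vs control, 0 none to 100 complete control; dash = not tested.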

[3] = system: wheat; assay: Test B postemergence herbicide test; assay type: in vivo, Triticum aestivum; set-up: key to Wheat plant response rating: 0 = no effect, 100 = complete control; conditions: postemergence
Method in brief: as §2

[4] = system: giant foxtail; assay: Test B pre-/postemergence herbicide test; assay type: in vivo, Setaria faberi; conditions: for Foxtail, Giant plant response rating: postemergence
Method in brief: as §1

[5] = system: pigweed; assay: Test B pre-/postemergence herbicide test; assay type: in vivo, Amaranthus retroflexus; conditions: for Pigweed plant response rating: postemergence
Method in brief: as §1

[6] = system: lambsquarters; assay: Test B pre-/postemergence herbicide test; assay type: in vivo, Chenopodium album; conditions: postemergence
Method in brief: as §1

[7] = system: corn; assay: Test B pre-/postemergence herbicide test; assay type: in vivo, Zea mays; conditions: postemergence
Method in brief: as §1

[8] = system: velvetleaf; assay: Test B pre-/postemergence herbicide test; assay type: in vivo, Abutilon theophrasti; conditions: for Velvetleaf plant response rating: postemergence
Method in brief: as §1

[9] = system: barnyardgrass; assay: Test B flooded paddy test; assay type: in vivo, Echinochloa crus-galli; conditions: 1000 g ai/ha, scale 0 to 100 (0 no effect, 100 complete control)
Method in brief: (§3)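 Formulated test chemicals went onto postemergence plants measuring 2 to 18 cm, at one to four leaves. For the paddy assay, species had reached two leaves. Scoring took place 13–15 days later by eye, relative to untreated plants, using 0 for no effect up to 100 for full control.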

[10] = system: barnyardgrass; assay: Test B pre-/postemergence herbicide test; assay type: in vivo, Echinochloa crus-galli; conditions: for Barnyardgrass plant response rating: postemergence
Method in brief: (§4)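 Plants compared with untreated controls 13–15 days post-treatment and given a visual 0–100 injury score. Applications: preemergence to seeds; postemergence at 1- to 4-leaf (2–18 cm); paddy species flooded, 2-leaf stage. Vehicle non-phytotoxic, surfactant included.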

[11] = system: small flower umbrella sedge; assay: Test B flooded paddy test; assay type: in vivo, Cyperus difformis; conditions: 1000 g ai/ha, scale 0 to 100 (0 no effect, 100 complete control)
Method in brief: as §3

[12] = system: cocklebur; assay: Test B pre-/postemergence herbicide test; assay type: in vivo, Xanthium strumarium; conditions: for Cocklebur plant response rating: postemergence
Method in brief: as §4

[13] = system: morningglory; assay: Test B pre-/postemergence herbicide test; assay type: in vivo, Ipomoea coccinea; conditions: visual rating
Method in brief: as §4

[14] = system: large crabgrass; assay: Test B pre-/postemergence herbicide test; assay type: in vivo, Digitaria sanguinalis; conditions: for Crabgrass, Large plant response rating: postemergence
Method in brief: as §1

[15] = system: rice; assay: Test B flooded paddy test; assay type: in vivo, Oryza sativa; conditions: 1000 g ai/ha, scale 0 to 100 (0 no effect, 100 complete control)
Method in brief: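 Postemergence plants were sprayed with formulated test chemicals at 2 to 18 cm height (1- to 4-leaf stage); paddy species were grown to the 2-leaf stage. After 13 to 15 days in a greenhouse, injury was rated visually against untreated controls on a 0–100 scale (0 = no effect, 100 = complete control).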

[16] = 125 g ai/ha, 0 is no effect, 100 is complete control, preemergence
[17] = 125 g ai/ha, visual rating, scale 0 (no effect) to 100 (complete control)
[18] = 500 g ai/ha, visual rating, 0 = no effect, 100 = complete control, preemergence
[19] = 500 g ai/ha, scale 0 to 100, 0 is no effect, 100 is complete control

CCNC(=O)c1ccc(F)c(NC(=O)c2c3c(nn2CC)C(C)(C)CC3)c1 [Compound 353]
0: Plant response rating (0 to 100 scale), Surinam Grass [1, 16] | Surinam Grass plant response rating [1, 17] | Wheat plant response rating [3, 17] | Plant response rating (0 to 100 scale), Foxtail, Giant [4, 16] | Plant response rating (0 to 100 scale), Pigweed [5, 16] | Plant response rating (0 to 100 scale), Cocklebur [12, 16]
10: Surinam Grass plant response rating [1, 19] | Oat, Wild plant response rating [2, 17] | Wheat plant response rating [3, 19] | Corn plant response rating [7, 17] | Plant response rating (0 to 100 scale), Velvetleaf [8, 16] | Barnyardgrass plant response rating [10, 17] | Barnyardgrass plant response rating [10, 19] | Cocklebur plant response rating [12, 17] | Morningglory plant response rating ([13]; 125 g ai/ha, scale 0 (no effect) to 100 (complete control), postemergence) | Crabgrass, Large plant response rating [14, 17] | Crabgrass, Large plant response rating [14, 19]
30: Plant response rating, Surinam Grass [1, 18] | Foxtail, Giant plant response rating [4, 19] | Pigweed plant response rating [5, 17]
50: Plant response rating, Foxtail, Giant [4, 18]
40: Oat, Wild plant response rating [2, 19] | Lambsquarters plant response rating [6, 19] | Plant response rating (0 to 100 scale), Barnyardgrass [10, 16] | Rice plant response rating [15]
80: Plant response rating, Crabgrass, Large [14, 18]
20: Foxtail, Giant plant response rating [4, 17] | Lambsquarters plant response rating [6, 17] | Corn plant response rating [7, 19] | Velvetleaf plant response rating [8, 17] | Velvetleaf plant response rating [8, 19] | Plant response rating, Cocklebur [12, 18] | Cocklebur plant response rating [12, 19] | Plant response rating, Morningglory ([13]; 500 g ai/ha, 0 = no effect, 100 = complete control, preemergence) | Plant response rating (0 to 100 scale), Crabgrass, Large [14, 16]
90: Plant response rating, Barnyardgrass [10, 18] | Sedge, Umbrella plant response rating [11]
70: Pigweed plant response rating [5, 19] | Barnyardgrass plant response rating [9]
